# Test results taken from patent US20100279942A1, “METHODS FOR TREATING MOTOR NEURON DISEASE” (priority 2004, published 2010).
# Values joined by “and” are separate entries in the source; they are usually repeats but may differ in a detail not shown here. Identical values can stand only once. “Also recorded” adds a separate entry of the source. Ends that are not written are not given here.
# Key:
# G93A-SOD1 Tg mice = assay: Motor performance (rotarod), disease onset and survival in G93A-SOD1 Tg mice; type: in vivo, mouse
# Text: Transgenic (Tg) mice (hereinafter, referred to as “G93A-SOD1 Tg mice”) expressing human FALS-associated SOD1 mutant gene with a mutation (G93A) from Gly to Ala at 93 position are the best-established mouse model of ALS (Gurney M E, et al., 1994, Science 264: 1772-1775; and Gurney M E, et al., 1997, J Neurol Sci 152 Suppl 1: S67-73). The G93A-SOD1 Tg mice manifest symptoms quite similar to human ALS after normal birth and rapidly result in death in all cases. The G93A-SOD1 Tg mice, which have the onset of the regression of motor neurons similar clinically and pathologically to that in human ALS, have been known so far to be the most excellent model of ALS throughout the world and employed for identifying effective candidate agents for ALS patients.
# The model mice were used to confirm the in vivo effect of ADNF on neurotoxicity induced by G93A-SOD1.
# The G93A-SOD 1 Tg mice were purchased from Jackson Laboratories (Bar Harbor, Me.). The G93A-SOD1 Tg mice were kept as hemizygote mice by the mating thereof with C57BL/6J mice (CLEA Japan, Inc). The mice were raised in a SPF room (specific pathogen-free animal facility; 23±1° C., 55±5% humidity) in the 12-hour light/[…] (7:00 AM-7:00 PM). The mice were freely fed with gamma ray-irradiated Picolab Rodent Diet 20 (PMI Feeds Inc. St. Louis, Mo.) and sodium hyposulfite (5 ppm)-containing aseptic deionized distilled water.
# The G93A-SOD1 Tg mice at 10 weeks of age were put under anesthesia by the intraperitoneal injection of 10% sodium pentobarbital (60 mg/kg). A hole was made on the cranial bone with a drill on the operating table of a stereotactic instrument to aseptically transplant the C315GS-4 cannula system for mouse (Plastics One Inc., Roanoke, Va.) to the mouse left cerebral ventricle. The cannula was fixed with a surgical adhesive and dental cement. The mice at 80 days of age were divided at random to a saline (control)-administered group (n=8) and an ADNF-administered group (n=11), and 3 μl of saline and 3 μl of 30 nmol ADNF were intracerebroventricularly (icv) injected each day to the former and the latter groups, respectively, until the end of the experiment. The injection was performed with the cannula in C3151S-4 connected to Hamilton syringe through a cannula tube (C232, PE50/Thin wall, Plastic One).
# The motor function (motor performance) was evaluated weekly with a rotarod (CLEA Japan Inc). After the cannulation, the mice were acclimated to the rotarod for 2 days. The mice were placed onto a rotating rod moving at 5 rpm, and the time for which each mouse could remain on the rod was automatically detected. The test was conducted according to the protocol wherein the test was completed as a score of 7 minutes if the mouse remained on the rod for 7 minutes (Li M, et al., 2000, Science 288: 335-339; and Kaspar B K, et al., 2003, Science 301: 839-842). Disease onset was defined as the first day when the mouse could not remain on the rotarod for 7 minutes.
# Death was defined when the mouse was unable to right itself within 30 seconds after being placed on its back (Li M, et al., supra).
# [1] = tested on: neuronal cell death caused by amyloid β; conditions: cited from earlier work
# [2] = tested on: F11 cells transformed with SOD1 mutant (A4T-SOD1, G85R-SOD1, G93R-SOD1) genes; assay: Neuronal cell death test, Trypan blue exclusion assay, F11 cells transformed with SOD1 mutant genes; type: cell-based, rat/mouse hybrid cell
# Method: F11 cell, the hybrid cell of rat embryonic day 13 (E13) primary cultured neuronal cell with mouse neuroblastoma NTG18 cell, was cultured in Ham's F-12 medium (Life Technologies, Gaithersburg, Md.) containing 18% FBS (Hyclone, Logan, Utah) and antibiotics as previously reported (Platika D, et al., 1985, Proc Natl Acad Sci USA 82: 3499-3503; Yamatsuji T, et al., 1996, Science 272: 1349-1352; Huang P, et al., 2000, Mol Hum Reprod 6: 1069-1078; and Niikura T, et al., 2001, J Neuroscience, 21: 1902-1910).
# The F11 cells (7×10^4 cells/well, 6-well plate, 12- to 16-hour culture in Ham's F-12 (18% PBS) medium) were transformed with wild-type or SOD1 mutant (A4T, G85R, and G93R) genes by lipofection (0.5 μg of each SOD1 gene; 1 μl of LipofectAMINE; 2 μl of PLUS Reagent) under serum-free conditions for 3 hours and cultured for 2 hours in Ham's F-12 (18% PBS) medium. The medium was replaced by Ham's F-12 (10% PBS) in the presence or absence of ADNF. After 72 hours of the transformation, cell mortality was measured by Trypan blue exclusion assay as previously reported (Hashimoto Y, et al., 2001, J Neurosci 21: 9235-9245; and Hashimoto Y, et al, 2001, Proc Natl Acad Sci USA 98: 6336-6341). […]
# Intracellular signaling by ADNF was examined. F11 cells were transformed with pEF-BOS or SOD1 mutant (A4T-SOD1, G85R-SOD1, or G93R-SOD1) cDNA and reacted with 10 nM wortmannin (PI3 kinase inhibitor), 100 μM genistein (tyrosine kinase inhibitor), 50 μM PD98059 (MEK inhibitor), 20 μM SB203580 (p38 MAPK inhibitor), 1 μM AG490 (JAK kinase inhibitor), 5 μM KN93 (calcium/calmodulin-dependent kinase inhibitor), or 10 μM HA1004 (protein kinase A inhibitor) in the presence or absence of 100 nM ADNF. After 72 hours of the transformation, cell mortality was measured by Trypan blue exclusion assay.
# The effect of KN93 on the neuroprotective action of ADNF was examined. […] After 72 hours of the transformation, cell mortality was measured by Trypan blue exclusion assay. […]
sequence,measurement,setting,value
"SALLRSIPA [ADNF, short peptide consisting of nine amino acid residues]",disease onset versus saline-administered group,G93A-SOD1 Tg mice; 30 nmol ADNF icv each day,prone to be delayed; also recorded: no significant difference
same,survival rate versus ALS control mice,G93A-SOD1 Tg mice; 30 nmol ADNF icv each day,no difference
same,Survival days,"G93A-SOD1 Tg mice; 30 nmol ADNF icv each day, n = 11",155.3 ± 3.7 days and 155.3 ± 2.2 days
same,Disease onset days,"G93A-SOD1 Tg mice; 30 nmol ADNF icv each day, n = 11, onset = first day unable to remain on rotarod for 7 minutes",127.3 ± 2.6 days
same,motor performance (rotarod) versus control mice,"G93A-SOD1 Tg mice; Week 16, 30 nmol ADNF icv each day from 80 days of age",significantly better than that of the control mice
same,motor performance (rotarod) versus control mice,"G93A-SOD1 Tg mice; Week 18 to Week 20, 30 nmol ADNF icv each day",this difference between the control mice and the ADNF-treated mice disappeared
same,neuroprotective action at high concentration,"[1]; ADNF at or above 10 nM, Brenneman et al.",lose its neuroprotective action
same,inhibitory activity against cell death caused by amyloid β toxicity- or APP mutant gene-induced disorders,"[1]; ADNF at or above nM levels, Hashimoto et al. 2001",reduced inhibitory activity
same,cell death inhibition,"[2]; 10 aM ADNF, three SOD1 mutant genes, 72 hours",hardly exhibited cell death inhibition
same,cell mortality induced by SOD1 mutant genes,"[2]; 100 fM ADNF, A4T-, G85R-, G93R-SOD1, 72 hours after transformation",completely decreased cell mortalities induced by these three types of SOD1 mutant genes to the level of the control
same,protective action on cell death caused by SOD1 mutant genes,[2]; ADNF at concentrations equal to or above 10 nM,complete protective action
